Blank lines part the entries; values can stand above or below the compound they belong to.
Key:
Type in all cases: biochemical
Conditions in all cases: ATP, MgCl2, 200 mM Tris-HCl, optimal pH about 7.0, optimal temperature 50 °C
Sm4CL2 [1] = biological target: T1, Sm4CL2 (Selaginella moellendorffii, UniProt D8S6A2); test: UV absorption at […] nm, CoA ester formation
T1 construct: gene 4CL2-1; 75-79 kDa with tags (tags kept)

Sm4CL2 [2] = biological target: T1, Sm4CL2; test: UV absorption at […] nm, CoA ester formation; remark: listed apart in the source
Sm4CL2 [3] = biological target: T1, Sm4CL2; test: UV absorption at […] nm, CoA ester formation; remark: listed apart in the source
Sm4CL2 [4] = biological target: T1, Sm4CL2; test: HPLC quantification of CoA ester after […] min

T1 sequence (D8S6A2 entry or part of it): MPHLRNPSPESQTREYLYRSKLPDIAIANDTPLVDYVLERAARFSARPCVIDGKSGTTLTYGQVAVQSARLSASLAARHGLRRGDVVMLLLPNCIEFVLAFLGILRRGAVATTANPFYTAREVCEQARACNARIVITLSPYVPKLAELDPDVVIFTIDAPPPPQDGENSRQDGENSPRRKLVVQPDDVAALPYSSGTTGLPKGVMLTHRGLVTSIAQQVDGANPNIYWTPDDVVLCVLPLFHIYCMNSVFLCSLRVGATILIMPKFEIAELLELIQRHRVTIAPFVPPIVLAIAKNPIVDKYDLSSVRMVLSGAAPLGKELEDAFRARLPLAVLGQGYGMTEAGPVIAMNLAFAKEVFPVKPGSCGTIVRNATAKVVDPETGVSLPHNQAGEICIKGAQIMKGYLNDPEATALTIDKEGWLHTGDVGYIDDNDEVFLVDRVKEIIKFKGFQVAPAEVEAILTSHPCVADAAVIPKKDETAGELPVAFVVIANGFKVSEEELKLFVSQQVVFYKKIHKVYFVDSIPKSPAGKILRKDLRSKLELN

SMILES: O=C(O)/C=C/c1ccccc1 [cinnamic acid]
Km (Sm4CL2 [1]): 127 ± 11.6 µM

SMILES: O=C(O)/C=C/c1ccc(O)c(O)c1 [caffeic acid]
Km (Sm4CL2 [3]): 19 ± 2.61 µM

SMILES: COc1cc(/C=C/C(=O)O)ccc1O [ferulic acid]
Km (Sm4CL2 [3]): 96 ± 13.4 µM

Second part, the compound after the results:

Km (Sm4CL2 [2]): 19.7 ± 2.92 µM
SMILES: O=C(O)/C=C/c1ccc(O)cc1 [p-coumaric acid]

Km (Sm4CL2 [4]): 220 ± 36.9 µM
SMILES: O=C(O)CCc1ccc(O)cc1 [dihydro-p-coumaric acid]

Reference: PMC6017068, “Cloning and Functional Characterization of Two 4-Coumarate: CoA Ligase Genes from Selaginella moellendorffii” (Molecules : A Journal of Synthetic Chemistry and Natural …, 2018)
